Results taken from ChEMBL document CHEMBL3352399, “Synthesis of aminoalkyl-substituted aurone derivatives as acetylcholinesterase inhibitors” (Bioorg Med Chem, 2015).

system: Mus musculus; assay: Reversal of scopolamine-induced memory deficit in ICR mouse assessed as latency time at 2 mg/kg, po administered 30 min before acquisition trial by passive avoidance test (Rvb =271.0 +/- 14.49 seconds); type: functional; conditions: not given

Compound | Time [s]
COc1ccc(/C=C2\Oc3cc(OCCN4CCCCC4)ccc3C2=O)cc1OC.Cl | 222.4

system: Mus musculus; assay: Reversal of scopolamine-induced memory deficit in ICR mouse assessed as latency time at 5 mg/kg, po administered 30 min before acquisition trial by passive avoidance test (Rvb =271.0 +/- 14.49 seconds); type: functional; conditions: not given

Compound | Time [s]
COc1ccc(/C=C2\Oc3cc(OCCN4CCCCC4)ccc3C2=O)cc1OC.Cl | 206.8

system: Mus musculus; assay: Toxicity in ICR mouse assessed as behavioral changes measured as latency time during acquisition trial at 0.5 to 5 mg/kg, po administered 30 min before acquisition trial by passive avoidance test; type: organism-based; parameters: dose 0.5-5 mg/kg, route oral; conditions: in vivo, 0.5 h

Compound | Activity
COc1ccc(/C=C2\Oc3cc(OCCN4CCCCC4)ccc3C2=O)cc1OC.Cl | Non-toxic

system: Mus musculus; assay: Reversal of scopolamine-induced memory deficit in ICR mouse assessed as latency time at 0.5 mg/kg, ip administered 30 min before acquisition trial by passive avoidance test (Rvb =271.0 +/- 14.49 seconds); type: functional; conditions: route intraperitoneal

Compound | Time [s]
COc1ccc(/C=C2\Oc3cc(OCCN4CCCCC4)ccc3C2=O)cc1OC.Cl | 88.9

system: Mus musculus; assay: Reversal of scopolamine-induced memory deficit in ICR mouse assessed as latency time at 1 mg/kg, po administered 30 min before acquisition trial by passive avoidance test (Rvb =271.0 +/- 14.49 seconds); type: functional; conditions: not given

Compound | Time [s]
COc1ccc(/C=C2\Oc3cc(OCCN4CCCCC4)ccc3C2=O)cc1OC.Cl | 242.5
COc1ccc2c3c1O[C@H]1C[C@@H](O)C=C[C@@]31CCN(C)C2 [GALANTAMINE] | 212.2

target: T1, Acetylcholinesterase (Mus musculus, UniProt P21836); conditions: not given
T1 sequence (P21836 whole entry): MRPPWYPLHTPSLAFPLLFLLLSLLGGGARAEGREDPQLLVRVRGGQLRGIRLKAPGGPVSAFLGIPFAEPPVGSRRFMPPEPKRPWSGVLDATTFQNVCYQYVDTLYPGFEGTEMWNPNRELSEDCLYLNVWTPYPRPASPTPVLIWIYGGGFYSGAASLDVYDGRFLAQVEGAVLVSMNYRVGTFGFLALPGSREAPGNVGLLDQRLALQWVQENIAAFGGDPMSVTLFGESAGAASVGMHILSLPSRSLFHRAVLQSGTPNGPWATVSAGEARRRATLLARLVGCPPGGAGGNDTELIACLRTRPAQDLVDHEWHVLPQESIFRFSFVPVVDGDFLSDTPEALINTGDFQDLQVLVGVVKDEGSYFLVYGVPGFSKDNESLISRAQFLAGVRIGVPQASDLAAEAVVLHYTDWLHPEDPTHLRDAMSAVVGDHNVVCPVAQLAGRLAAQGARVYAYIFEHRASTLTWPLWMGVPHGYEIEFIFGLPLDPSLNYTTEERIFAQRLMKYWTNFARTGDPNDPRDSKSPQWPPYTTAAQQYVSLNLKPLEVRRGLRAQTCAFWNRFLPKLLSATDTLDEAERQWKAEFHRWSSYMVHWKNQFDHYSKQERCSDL

Compound | IC50 [nM]
O=C1/C(=C/c2ccc(O)cc2)Oc2cc(OCCN3CCCCC3)ccc21 | 13500
O=C1/C(=C/c2ccc(O)cc2)Oc2cc(OCCN3CCCC3)ccc21 | 11100
CCN(CC)CCOc1ccc2c(c1)O/C(=C\c1ccc(O)cc1)C2=O | 35500
O=C1/C(=C/c2ccc(O)cc2)Oc2cc(OCCN3CCOCC3)ccc21 | 186000
COc1ccccc1/C=C1\Oc2cc(OCCN3CCCCC3)ccc2C1=O | 2520
COc1cccc(/C=C2\Oc3cc(OCCN4CCCCC4)ccc3C2=O)c1 | 1150
COc1ccc(/C=C2\Oc3cc(OCCN4CCCCC4)ccc3C2=O)cc1 | 900
COc1ccc(/C=C2\Oc3cc(OCCN4CCCCC4)ccc3C2=O)cc1OC.Cl | 400
COc1cc(/C=C2\Oc3cc(OCCN4CCCCC4)ccc3C2=O)cc(OC)c1OC | 1120
COc1ccccc1/C=C1\Oc2cc(OCCN3CCCC3)ccc2C1=O | 2870
COc1cccc(/C=C2\Oc3cc(OCCN4CCCC4)ccc3C2=O)c1 | 1610
COc1ccc(/C=C2\Oc3cc(OCCN4CCCC4)ccc3C2=O)cc1 | 2380
COc1cccc(/C=C2\Oc3cc(OCCN4CCCC4)ccc3C2=O)c1OC | 990
COc1ccc(/C=C2\Oc3cc(OCCN4CCCC4)ccc3C2=O)c(OC)c1 | 1610
COc1ccc(OC)c(/C=C2\Oc3cc(OCCN4CCCC4)ccc3C2=O)c1 | 1490
COc1ccc(/C=C2\Oc3cc(OCCN4CCCC4)ccc3C2=O)cc1OC | 750

Compound | IC50 [nM]
COc1cc(/C=C2\Oc3cc(OCCN4CCCC4)ccc3C2=O)cc(OC)c1 | 4810
COc1ccc(/C=C2\Oc3cc(OCCN4CCCC4)ccc3C2=O)c(OC)c1OC | 13700
COc1cc(/C=C2\Oc3cc(OCCN4CCCC4)ccc3C2=O)cc(OC)c1OC | 1560
COc1cccc(/C=C2\Oc3cc(OCCCN4CCCCC4)ccc3C2=O)c1 | 750
COc1ccccc1/C=C1\Oc2cc(OCCCN3CCCC3)ccc2C1=O | 5930
COc1cccc(/C=C2\Oc3cc(OCCCN4CCCC4)ccc3C2=O)c1 | 4200
COc1ccc(/C=C2\Oc3cc(OCCCN4CCCC4)ccc3C2=O)cc1 | 3310
COc1cccc(/C=C2\Oc3cc(OCCCN4CCCC4)ccc3C2=O)c1OC | 1050
COc1ccc(/C=C2\Oc3cc(OCCCN4CCCC4)ccc3C2=O)c(OC)c1 | 1660
COc1ccc(OC)c(/C=C2\Oc3cc(OCCCN4CCCC4)ccc3C2=O)c1 | 4740
COc1ccc(/C=C2\Oc3cc(OCCCN4CCCC4)ccc3C2=O)cc1OC | 1030
COc1cc(/C=C2\Oc3cc(OCCCN4CCCC4)ccc3C2=O)cc(OC)c1 | 4630
COc1ccc(/C=C2\Oc3cc(OCCCCN4CCCCC4)ccc3C2=O)cc1OC | 1520
COc1ccc(/C=C2\Oc3cc(OCCCCCN4CCCCC4)ccc3C2=O)cc1OC | 1260
COc1ccc(/C=C2\Oc3cc(OCCCN4CCCCC4)ccc3C2=O)cc1OC | 890
O=C1/C(=C/c2ccc(O)c(O)c2)Oc2cc(O)ccc21 [SULFURETIN] | 699000
